In PubChem BioAssay (NCI):
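GI50 is the concentration that inhibits growth by half. TGI marks complete inhibition of growth.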

Assays:
Experiment in all cases: NCI anticancer screen, dose series, 384-well format
786-0 renal = test system: 786-0 renal
A498 renal = test system: A498 renal
A549 NSCLC = test system: A549 NSCLC
ACHN renal = test system: ACHN renal
BT-549 breast = test system: BT-549 breast
CAKI-1 renal = test system: CAKI-1 renal
CCRF-CEM leukemia = test system: CCRF-CEM leukemia
COLO 205 colon = test system: COLO 205 colon
DU-145 prostate = test system: DU-145 prostate
HCC-2998 colon = test system: HCC-2998 colon
HCT-116 colon = test system: HCT-116 colon
HCT-15 colon = test system: HCT-15 colon
HL-60(TB) leukemia = test system: HL-60(TB) leukemia
HOP-62 NSCLC = test system: HOP-62 NSCLC
HOP-92 NSCLC = test system: HOP-92 NSCLC
HT29 colon = test system: HT29 colon
IGROV1 ovarian = test system: IGROV1 ovarian
K-562 leukemia = test system: K-562 leukemia
KM12 colon = test system: KM12 colon
LOX IMVI melanoma = test system: LOX IMVI melanoma
M14 melanoma = test system: M14 melanoma
MALME-3M melanoma = test system: MALME-3M melanoma
MCF7 breast = test system: MCF7 breast
MDA-MB-231 breast = test system: MDA-MB-231 breast
MDA-MB-435 melanoma = test system: MDA-MB-435 melanoma
MDA-MB-468 breast = test system: MDA-MB-468 breast
MOLT-4 leukemia = test system: MOLT-4 leukemia
NCI-H226 lung = test system: NCI-H226 lung
NCI-H23 lung = test system: NCI-H23 lung
NCI-H322M lung = test system: NCI-H322M lung
NCI-H460 NSCLC = test system: NCI-H460 NSCLC
NCI-H522 lung = test system: NCI-H522 lung
NCI/ADR-RES ovarian = test system: NCI/ADR-RES ovarian
OVCAR-3 ovarian = test system: OVCAR-3 ovarian
OVCAR-4 ovarian = test system: OVCAR-4 ovarian
OVCAR-5 ovarian = test system: OVCAR-5 ovarian
OVCAR-8 ovarian = test system: OVCAR-8 ovarian
PC-3 prostate = test system: PC-3 prostate
RPMI-8226 leukemia = test system: RPMI-8226 leukemia
RXF 393 renal = test system: RXF 393 renal
SF-268 CNS = test system: SF-268 CNS
SF-295 CNS = test system: SF-295 CNS
SF-539 CNS = test system: SF-539 CNS
SK-MEL-2 melanoma = test system: SK-MEL-2 melanoma
SK-MEL-28 melanoma = test system: SK-MEL-28 melanoma
SK-MEL-5 melanoma = test system: SK-MEL-5 melanoma
SK-OV-3 ovarian = test system: SK-OV-3 ovarian
SN12C renal = test system: SN12C renal
SNB-19 CNS = test system: SNB-19 CNS
SR leukemia = test system: SR leukemia
SW-620 colon = test system: SW-620 colon
T-47D breast = test system: T-47D breast
TK-10 renal = test system: TK-10 renal
U251 glioblastoma = test system: U251 glioblastoma
UACC-257 melanoma = test system: UACC-257 melanoma
UACC-62 melanoma = test system: UACC-62 melanoma
UO-31 renal = test system: UO-31 renal

Q: What does the source list for COc1cc2c(Oc3ccc(NC(=O)C4(C(=O)Nc5ccc(F)cc5)CC4)cc3F)ccnc2cc1OCCCN1CCOCC1?
A: GI50 (786-0 renal): 1190 nM; TGI (786-0 renal): 2420 nM; GI50 (A498 renal): 838 nM; TGI (A498 renal): 2080 nM; GI50 (A549 NSCLC): 329 nM; TGI (A549 NSCLC): 1170 nM; GI50 (ACHN renal): 205 nM; TGI (ACHN renal): 718 nM; GI50 (BT-549 breast): 440 nM; TGI (BT-549 breast): 1510 nM; GI50 (CAKI-1 renal): 183 nM; TGI (CAKI-1 renal): 584 nM; GI50 (CCRF-CEM leukemia): 52.8 nM; TGI (CCRF-CEM leukemia): 189 nM; GI50 (COLO 205 colon): 211 nM; TGI (COLO 205 colon): 460 nM; GI50 (DU-145 prostate): 1160 nM; TGI (DU-145 prostate): 2390 nM; GI50 (HCC-2998 colon): 1110 nM; TGI (HCC-2998 colon): 2320 nM; GI50 (HCT-116 colon): 379 nM; TGI (HCT-116 colon): 1570 nM; GI50 (HCT-15 colon): 419 nM; TGI (HCT-15 colon): 1590 nM; GI50 (HL-60(TB) leukemia): 194 nM; TGI (HL-60(TB) leukemia): 387 nM; GI50 (HOP-62 NSCLC): 668 nM; TGI (HOP-62 NSCLC): 1930 nM; GI50 (HOP-92 NSCLC): 107 nM; TGI (HOP-92 NSCLC): 421 nM; GI50 (HT29 colon): 324 nM; TGI (HT29 colon): 1220 nM; GI50 (IGROV1 ovarian): 275 nM; TGI (IGROV1 ovarian): 990 nM; GI50 (K-562 leukemia): 40.3 nM; TGI (K-562 leukemia): 143 nM; TGI (KM12 colon): 931 nM; GI50 (LOX IMVI melanoma): 386 nM; TGI (LOX IMVI melanoma): 945 nM; GI50 (M14 melanoma): 293 nM; TGI (M14 melanoma): 882 nM; GI50 (MALME-3M melanoma): 185 nM; TGI (MALME-3M melanoma): 541 nM; GI50 (MCF7 breast): 331 nM; TGI (MCF7 breast): 1440 nM; GI50 (MDA-MB-231 breast): 361 nM; TGI (MDA-MB-231 breast): 1660 nM; GI50 (MDA-MB-435 melanoma): 331 nM; TGI (MDA-MB-435 melanoma): 1200 nM; GI50 (MDA-MB-468 breast): 270 nM; TGI (MDA-MB-468 breast): 547 nM; GI50 (MOLT-4 leukemia): 42.5 nM; TGI (MOLT-4 leukemia): 137 nM; GI50 (NCI-H226 lung): 276 nM; TGI (NCI-H226 lung): 966 nM; GI50 (NCI-H23 lung): 46.3 nM; TGI (NCI-H23 lung): 642 nM; GI50 (NCI-H322M lung): 866 nM; TGI (NCI-H322M lung): 2100 nM; GI50 (NCI-H460 NSCLC): 219 nM; TGI (NCI-H460 NSCLC): 1130 nM; GI50 (NCI-H522 lung): 211 nM; TGI (NCI-H522 lung): 817 nM; GI50 (NCI/ADR-RES ovarian): 436 nM; TGI (NCI/ADR-RES ovarian): 1600 nM; GI50 (OVCAR-3 ovarian): 554 nM; TGI (OVCAR-3 ovarian): 1780 nM; GI50 (OVCAR-4 ovarian): 409 nM; TGI (OVCAR-4 ovarian): 1770 nM; GI50 (OVCAR-5 ovarian): 911 nM; TGI (OVCAR-5 ovarian): 2120 nM; GI50 (OVCAR-8 ovarian): 1190 nM; TGI (OVCAR-8 ovarian): 2430 nM; GI50 (PC-3 prostate): 1300 nM; TGI (PC-3 prostate): 2580 nM; GI50 (RPMI-8226 leukemia): 202 nM; TGI (RPMI-8226 leukemia): 492 nM; GI50 (RXF 393 renal): 158 nM; TGI (RXF 393 renal): 548 nM; GI50 (SF-268 CNS): 781 nM; TGI (SF-268 CNS): 2020 nM; GI50 (SF-295 CNS): 94 nM; TGI (SF-295 CNS): 1510 nM; GI50 (SF-539 CNS): 135 nM; TGI (SF-539 CNS): 489 nM; GI50 (SK-MEL-2 melanoma): 300 nM; TGI (SK-MEL-2 melanoma): 1240 nM; GI50 (SK-MEL-28 melanoma): 361 nM; TGI (SK-MEL-28 melanoma): 1430 nM; GI50 (SK-MEL-5 melanoma): 333 nM; TGI (SK-MEL-5 melanoma): 1460 nM; GI50 (SK-OV-3 ovarian): 522 nM; TGI (SK-OV-3 ovarian): 1790 nM; GI50 (SN12C renal): 175 nM; TGI (SN12C renal): 1060 nM; GI50 (SNB-19 CNS): 1180 nM; TGI (SNB-19 CNS): 2410 nM; GI50 (SR leukemia): 131 nM; TGI (SR leukemia): 261 nM; GI50 (SW-620 colon): 201 nM; TGI (SW-620 colon): 747 nM; GI50 (T-47D breast): 1050 nM; TGI (T-47D breast): 2230 nM; GI50 (TK-10 renal): 648 nM; TGI (TK-10 renal): 1910 nM; GI50 (U251 glioblastoma): 1140 nM; TGI (U251 glioblastoma): 2360 nM; GI50 (UACC-257 melanoma): 265 nM; TGI (UACC-257 melanoma): 859 nM; GI50 (UACC-62 melanoma): 369 nM; TGI (UACC-62 melanoma): 1550 nM; GI50 (UO-31 renal): 314 nM; TGI (UO-31 renal): 1110 nM
